In patent US20250268844A1, “ANTICANCER AGENTS BASED ON CYCLOPENTENONES” (UNIVERSITY OF CRETE, priority 2022, published 2025):
Entries after “also recorded” stand apart in the source; their conditions may differ.

How the values were obtained:
[1] = test system: A2780 ovarian carcinoma cells; test: MTT conversion assay, A2780; type: cell-based, human; settings: Homo sapiens, 48 hrs treatment
Procedure: (§1) In particular, Enone-1 and Enone-2 were tested for cytotoxic activity in 17 cell lines representing a broad spectrum of human tumors. They include human colorectal carcinoma (Caco2, RKO, HCT15, HT29), liver (HepG2), lung (A549), ovarian carcinoma (A2780, 2780CP, AGE60, SKOV3), anaplastic large cell lymphoma (Mac1 and Mac2a), breast carcinoma (MDA-MB-231), cervical (HeLa), bladder cancer (VM-CUB-1), melanoma (BRO), and multiple myeloma (MR20).
(§2) Each assay was performed in triplicate and repeated in 2-3 independent experiments. Specifically, to measure cell survival, 20 μl of 10 mg/ml MTT (3-([…])-2,5-diphenyl tetrazolium bromide; Sigma) was added to each well and the plates were incubated at 37° C. in 5% CO2 for 3 hours. The supernatant was removed and the formed crystals were dissolved in 200 μl dimethyl sulphoxide. The plates were then analysed at 450 nm on a plate reader. Growth inhibition (reduction in survival) was calculated by expressing the differences in optical densities between treatment wells and control wells as a percentage of the control.

[2] = test system: 2780CP, a cis-platin-resistant derivative of A2780; test: MTT conversion assay, 2780CP; type: cell-based, human
Procedure: as §1, §2
Resistance to platinum-based chemotherapy is a major problem in oncology that impacts therapeutic options and limits patient survival. This is relevant to several types of malignancy, including ovarian cancer where platinum resistance frequently occurs. As Enone-1 and 2 show efficacy in reducing survival of A2780 ovarian carcinoma cells, the drugs were also tested in 2780CP, a cis-platin-resistant derivative of A2780 [13].

[3] = test system: AGE60 ovarian carcinoma cells; test: MTT conversion assay, AGE60; type: cell-based, human; settings: Homo sapiens, Ovarian carcinoma cell, 48 hrs treatment
Procedure: as §1, §2

[4] = test system: Caco-2 colorectal carcinoma cells; test: MTT conversion assay, Caco-2; type: cell-based; settings: Homo sapiens, Caco-2, colon, 48 hrs treatment
Procedure: as §1, §2

[5] = test system: HCT15 colorectal carcinoma cells; test: MTT conversion assay, HCT15; type: cell-based, human; settings: Homo sapiens, HCT-15, HCT15, colon, 48 hrs treatment
Procedure: as §1, §2

[6] = test system: Mac2a anaplastic large cell lymphoma cells; test: MTT conversion assay, Mac2a; type: cell-based; settings: Homo sapiens, ALCL, 48 hrs treatment
Procedure: as §1, §2

[7] = test system: MR20 multiple myeloma cells; test: MTT conversion assay, MR20; type: cell-based, human; settings: Homo sapiens, Multiple myeloma cell, 48 hrs treatment
Procedure: as §1, §2

[8] = test system: VM-CUB-1 bladder cancer cells; test: MTT conversion assay, VM-CUB-1; type: cell-based, human; settings: Homo sapiens, 48 hrs treatment
Procedure: as §1, §2

[9] = test system: A2780 ovarian cancer cells; test: PrestoBlue cell viability assay; type: cell-based, human; settings: Homo sapiens, 72 hrs treatment, n=3 experiments
Procedure: The effects of Enone-1 and Enone-2 on cancer cells were confirmed using a second methodology, namely the PrestoBlue assay (PrestoBlue™ Cell Viability Reagent, Thermo Fisher, Catalog number: A13261), a cell permeable resazurin-based solution that functions as a cell viability indicator. A2780 ovarian cancer cells were plated as described above for the MTT assays and Enone drugs were added at increasing concentrations as indicated in FIG. 2. Cell viability was determined 72 hrs later following the addition of PrestoBlue, according to the manufacturer's instructions (Thermo Fisher).

[10] = test system: MB49 mouse bladder carcinoma cells; test: MTT assay, MB49; type: cell-based; settings: 48 hrs
Procedure: FIG. 5: Effects of enone compounds on mouse tumor growth.
as §2
First, the impact of Enone-1 and Enone-2 on the survival of MB49 cells was verified by MTT assays performed as described in FIG. 1.

γH2Ax = γH2Ax immunoblot (DNA damage response marker) in A2780 cells; type: cell-based, human; settings: 6 hrs, increasing concentrations, relative to untreated controls
Procedure: (§3) FIG. 9. […] A2780 cells were cultured for 6 hrs in the presence of drug concentrations as indicated. (B) Effects of siRNA targeting RPL11 (siRPL11), Chek2 (siChek2) or the unrelated luciferase (Luci) genes on RPL11 and Chek2 mRNA levels quantified by RT-PCR. (C) Effects of siRpl11 on Enone-2 and oxaliplatin (OXA)-induced p53 activation. Expression levels relative to GAPDH are indicated; untreated controls (CNT) were given the arbitrary value of 1. […] Expression levels relative to GAPDH are indicated; untreated controls (CNT) were given the arbitrary value of 1.

p53 = test: siRNA knockdown of Chek2 or Rpl11 and drug-induced p53 activation in A2780 cells; type: cell-based, human; settings: A2780 transiently transfected with siRNAs
Procedure: as §3
To further validate this observation, A2780 cells were transiently transfected with siRNAs targeting Chek2 which is required for DDR-induced p53, or Rpl11 which is required for RS-mediated p53 activation. The efficacy and specificity of the knockdowns were confirmed by RT-qPCR (FIG. 9B).

[11] = test system: 2780CP ovarian carcinoma cells; test: Combination with bortezomib in 2780CP cells; type: cell-based, human; settings: 2 hours bortezomib pre-treatment, then 48 hour co-culture with Enone-2
Procedure: The arrows in the microphotographs of (A) depict 2780CP cells with apoptotic morphology following treatment with 5 nM bortezomib in combination with 0.5 μM Enone-2.
Proteasome inhibitors have been reported to enhance platinum-induced toxicity in cis-platin-resistant ovarian cancer cells. […] To address this hypothesis, 2780CP ovarian carcinoma cells were pre-treated for 2 hours with different concentrations of the proteasomal inhibitor bortezomib, a drug in clinical use, followed by a 48 hour co-culture with Enone-2.

[12] = test system: A2780 ovarian carcinoma cells; test: Gene expression profiling (RNAseq) of A2780 cells; type: cell-based, human
From the text: FIG. 7: Schematic representation of KEGG p53 pathway-related genes and their cellular roles.
Activation of p53 occurs in response to DNA damage (so called “DNA damage response”, DDR) or ribosomal stress (RS) and conveys signals that arrest cell cycle and induce cell death.
This group entailed the following gene transcripts: ZFAND2A; KCTD10; MDM2; PLK2; DDIT3; DNAJB9; PSMD6; RYBP; PSMD10; SPSB3; PSMB8; PELI1; RNF103; DNAJB2; UBE2H; ATXN3; PSEN1; RCHY1; UBR1; ANAPC16; JKAMP; DDA1; PSMA6; TMUB2; TRIM72; SPOPL; UBE2J1; ARIH1; NPLOC4; CDC26; USP19; UFD1; TNFAIP1; PSMB6; DERL1; UBE2V2; SELENOS; PSMA1; UBE2.

With `C[C@@]1(O)C=CC(=O)[C@H]1c1ccc(F)c2ccccc12` (stereo in doubt) [Enone-2, 5-(4-fluoronaphthalen-1-yl)-4-hydroxy-4-methylcyclopent-2-en-1-one] the IC50 [1] was 0.5 µM, the IC50 ([2]; Homo sapiens, A2780, 2780CP, ovarian, cis-platin-resistant, 48 hrs treatment, MTT) was 0.7 µM and the “sensitivity of 2780CP cells compared with cis-platin-sensitive A2780 cells” value ([2]; MTT conversion assays) was “nearly as sensitive; also recorded: remain sensitive”. For the same molecule, the IC50 [3] was 1.2 µM, the IC50 [4] was 1.8 µM and the IC50 [5] was 0.9 µM. The IC50 [6] was 2.3 µM, the IC50 [7] was 0.1 µM and the IC50 [8] was 0.8 µM. For the same molecule, the IC50 [9] was 0.12 µM, the IC50 [10] was 0.6 µM and the “γH2Ax induction (marker of DDR)” value (γH2Ax) was “no effect relative to untreated controls”. For the same molecule, the “effect of Chek2 or Rpl11 siRNA knockdown on drug-induced p53 activation” value (p53) was “only Rpl11 knockdown that affected Enone-2 mediated p53 activation”, the “cytotoxicity of combination with bortezomib compared to each agent alone” value [11] was “augmentation of cytotoxicity compared to each agent alone; also recorded: higher cytotoxicity in relation to each agent alone” and the “transcripts of proteasome-mediated ubiquitin-dependent protein catabolic process” value ([12]; 2.5 μM for 6 hours, bioinformatic analysis) was “enrichment of up-regulated transcripts”. The “p53 pathway activation (gene expression profiling)” value ([12]; 2.5 μM for 6 hrs or 14 hrs) was “activation of the p53 pathway”.
